Experiments:
FN mRNA expression = assay: TGF-β-induced FN mRNA expression in IPF lung fibroblasts (Taqman); assay type: cell-based, human; conditions: IPF-LF, TGF-β 4 ng/mL, 48 h
Description: Fibroblasts from donors with IPF (IPF-LF) (Asterand, Detroit, MI, United States) were grown in fibroblast basal medium (CC-3131, Lonza Walkersville, Inc., Walkersville, MD, United States) supplemented with FGM-2 SingleQuot Kit Supplements and Growth Factors (CC-4126, Lonza). Cells were grown in a humidified incubator at 37°C and 5% CO2. All assays were performed at passage 7 or 8. For assay set-up, cells were seeded in fibroblast growth medium plus supplements in assay-relevant densities. For TGF-β-stimulated assays, cells were seeded at 4,500 cells per well in 96-well plates. Proliferation assays were performed in 96-well plates at an initial seeding cell density on day 0 of 2,000 cells per well. After 24-h, the cell culture medium was changed to starvation medium (fibroblast basal medium without supplements). […]
For determination of Col1A1, Col3A1, and FN mRNA expression, IPF-LF cells were stimulated with TGF-β (4 ng/mL) for 48 h. […] Quantitative real-time polymerase chain reactions were set up using the TaqMan™ Fast Advanced Master Mix (Applied Biosystems, Carlsbad, CA, United States) and species-specific gene expression assays: Col1A1 #Hs00164004_m1 FAM, Col3A1 #Hs0094309_m1 FAM, FN #Hs01549976_m1 FAM, 18S #4310893E. […] Fold-change of gene expression was calculated by the Viia7 software (regulation based upon housekeeper).

PDE3A = molecular target: T1, PDE3A (Homo sapiens, UniProt Q14432); assay: Recombinant PDE activity, scintillation proximity assay: PDE3A; assay type: biochemical; conditions: calculated IC50
T1 construct: made in house; host or cells: SF9 insect cells (baculovirus, Bac-To-Bac, pFastbac)
T1 sequence (Q14432 whole entry): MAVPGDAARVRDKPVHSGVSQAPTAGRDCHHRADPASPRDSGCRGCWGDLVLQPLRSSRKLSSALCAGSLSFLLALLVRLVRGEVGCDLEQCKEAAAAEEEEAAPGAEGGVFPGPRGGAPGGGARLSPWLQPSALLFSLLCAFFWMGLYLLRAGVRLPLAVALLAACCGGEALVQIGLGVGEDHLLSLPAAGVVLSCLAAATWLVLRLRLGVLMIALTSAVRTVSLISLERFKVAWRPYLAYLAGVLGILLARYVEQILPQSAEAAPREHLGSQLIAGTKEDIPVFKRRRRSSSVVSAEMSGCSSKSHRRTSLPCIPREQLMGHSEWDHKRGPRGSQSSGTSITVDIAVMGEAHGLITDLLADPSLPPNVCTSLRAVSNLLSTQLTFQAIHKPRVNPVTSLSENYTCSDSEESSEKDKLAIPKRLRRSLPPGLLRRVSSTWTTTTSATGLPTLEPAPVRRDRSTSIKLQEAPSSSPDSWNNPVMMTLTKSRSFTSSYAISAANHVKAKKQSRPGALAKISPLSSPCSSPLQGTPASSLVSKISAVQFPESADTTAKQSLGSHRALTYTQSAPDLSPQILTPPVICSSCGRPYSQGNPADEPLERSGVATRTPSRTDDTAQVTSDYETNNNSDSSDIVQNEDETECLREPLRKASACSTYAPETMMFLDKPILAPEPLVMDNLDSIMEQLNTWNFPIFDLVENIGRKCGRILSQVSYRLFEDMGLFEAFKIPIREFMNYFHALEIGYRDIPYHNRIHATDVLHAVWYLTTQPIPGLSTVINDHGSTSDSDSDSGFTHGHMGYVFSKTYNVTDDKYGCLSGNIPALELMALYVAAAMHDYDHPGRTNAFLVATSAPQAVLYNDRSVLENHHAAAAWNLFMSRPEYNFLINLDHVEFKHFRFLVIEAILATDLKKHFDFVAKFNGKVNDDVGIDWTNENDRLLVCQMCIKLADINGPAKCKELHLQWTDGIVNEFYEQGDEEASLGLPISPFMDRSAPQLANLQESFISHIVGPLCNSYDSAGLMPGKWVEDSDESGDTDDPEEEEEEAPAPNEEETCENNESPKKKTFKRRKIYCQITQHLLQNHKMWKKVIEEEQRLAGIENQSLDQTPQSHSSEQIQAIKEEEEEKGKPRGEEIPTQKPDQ
Text: For the preparation of human recombinant PDEs of interest, the Bac-To-Bac baculoviral expression system from Invitrogen (Carlsbad, CA, United States) was used according to the instruction manual. In short, the full-length open reading frames of PDE1C (National Center for Biotechnology Information Gene-Ref-Seq identifier NG_051183), PDE3A (NG_030033), PDE4A (NG_029594, AA 156–886), PDE4C (NG_029629), PDE7A (NG_029614), and PDE9A (NG_047067) were cloned into the plasmid vector pFastbac. For PDE4B and PDE4D, active site fragments were used (PDE4B NG_029038: AA 152–484, PDE4D NG_027957, AA 79–438). The plasmids were transformed into DH10Bac bacteria, SF9 insect cells were transfected with the bacmid DNA, and the resulting baculoviruses were stored and used for further rounds of infections. […] The protein content was measured and an equal volume of 87% (v/v) glycerol was added prior to freezing at −20°C. […] The reaction was stopped by addition of 50 µL of yttrium silicate scintillation proximity assay beads (17.8 mg/mL, 18 mM zinc sulfate in H2O) and the amount of produced [^3H]AMP/[^3H]GMP associated was determined using a Wallac Microbeta scintillation counter. […]

[1] = test system: phytohemagglutinin P-induced IL-2 release; assay: Phytohemagglutinin P-induced IL-2 release in human PBMCs; assay type: cell-based; conditions: 10 µg/mL PHA-P for 20 h
Description: Blood was donated by internal donors at the Center for Occupational Health at Boehringer Ingelheim in Biberach an der Riss, Germany; the donors provided signed informed consent that allows use for scientific purposes. All research was performed in accordance with the principles stated in the Declaration of Helsinki. Ethical approval was provided by the Federal State Medical Association of Baden-Württemberg, reference no. F-2016–121. For preparation of peripheral blood mononuclear cells (PBMCs), 200 mL freshly drawn human blood from healthy donors was mixed with 50 mL acid-citrate-dextrose solution (38 mmol/L citric acid, 75 mmol/L tri-sodium citrate and 121 mmol/L glucose) and 50 mL Hanks buffered saline solution (Thermo Fisher Scientific, Carlsbad, CA, United States), overlaid on Ficoll and centrifuged for 30 min at 300 x g. PBMCs were diluted in RPMI-1640 medium (Thermo Fisher Scientific) containing 6% (v/v) autologous plasma to a concentration of 5 × 10^6 cells/mL. […] Supernatants were taken and cytokines measured by enzyme-linked immunosorbent assay (ELISA; Becton Dickinson, Franklin Lakes, NJ, United States).

IPF-LF cells = assay: bFGF plus IL-1β-induced proliferation of IPF lung fibroblasts (bromodeoxyuridine assay); assay type: cell-based
Description: Fibroblasts from donors with IPF (IPF-LF) (Asterand, Detroit, MI, United States) were grown in fibroblast basal medium (CC-3131, Lonza Walkersville, Inc., Walkersville, MD, United States) supplemented with FGM-2 SingleQuot Kit Supplements and Growth Factors (CC-4126, Lonza). Cells were grown in a humidified incubator at 37°C and 5% CO2. All assays were performed at passage 7 or 8. For assay set-up, cells were seeded in fibroblast growth medium plus supplements in assay-relevant densities. For TGF-β-stimulated assays, cells were seeded at 4,500 cells per well in 96-well plates. Proliferation assays were performed in 96-well plates at an initial seeding cell density on day 0 of 2,000 cells per well. After 24-h, the cell culture medium was changed to starvation medium (fibroblast basal medium without supplements). After a 24-h starvation period, cells were pre-incubated for 30 min with different concentrations of BI 1015550 plus/minus different concentrations of nintedanib and/or 1 nmol/L PGE2 and stimulated with the assay-relevant stimulus for the indicated time in the presence of the compound.
IPF-LF cells were stimulated with bFGF (20 ng/mL) plus IL-1β (30 pg/mL). After 72 h of stimulation, 10-times concentrated bromodeoxyuridine was added and the cells were incubated for another 18 h (final concentration bromodeoxyuridine 10 μmol/L). Cell proliferation was assessed by bromodeoxyuridine assay (Roche, Mannheim, Germany) according to the instruction manual.

PDE6 = PDE6 inhibition screen at Eurofins Cerep; assay type: biochemical, bovine; conditions: screened at Eurofins Cerep

IC50 (PDE3A): 120000 nM | IC50 [1]: 9 nM
SMILES: [O-][S+]1CCc2nc(N3CCC(c4ncc(Cl)cn4)CC3)nc(NC3(CO)CCC3)c21 (stereo not drawn) [BI 1015550]
IC50 (FN mRNA expression): 246 nM | IC50 (IPF-LF cells; IPF-LF, alone, read-out: IC50 bFGF plus IL-1β-induced cell proliferation): 255 nM | Additional inhibitory effects in combination, proliferation assay (IPF-LF cells; combination with pirfenidone (100 µmol/L), data not shown): did not yield any additional inhibitory effects | Inhibition of bovine PDE6 (PDE6): did not inhibit
